This experiment relates to individuals with poor sleep, anxiety, worry. Kind of experiment: Individual cases treated with the four herb combination. Format: in vivo, human. The note with it: third case; patient history, prostate medication. The text has this: For example, the four herb combination was used to treat three separate individuals, each at a different age with varying problems. The following are cases of how the four herb combination has improved the sleep onset, sleep maintenance, and energy of these individuals. […] They took Codeine and Paracetamol for 3 months, gradually reducing the dose whilst undergoing physiotherapy. The physiotherapy continued for approximately 6 months until the arm was fully functional and pain-free. One year after the original injury, their sleep was still impaired with onset and maintenance insomnia. The person stated that they “dreaded bedtime” and the hours they would be lying awake in bed. They worried during the day, with the worry increasing in the evening. […] In addition, they had changed their lifestyle avoiding commitments in the morning, and not socializing at night as they were worried that the stimulation would further impair their sleep. After 2 weeks on the herbal combination they noticed improvements. At 1 month, they were falling asleep within 20 minutes (versus over an hour before starting the treatment) and was waking up only once per night (versus 3 times or more before starting treatment). […] Their pattern was to readily fall asleep but then wake up 6 times throughout the night which led to urinating half the time, and then having difficulty returning to sleep. […]

Drawing on US11213561B2, “Herbal methods for the improvement of sleep, social interaction, concern or worry” (Rox IP Pty Ltd., priority 2017, dated 2022), this text covers reducing night-time urination and waking for one compound.

With `CCOc1ccccc1OCCN[C@H](C)Cc1ccc(OC)c(S(N)(=O)=O)c1` [Flomax, Tamsulosin], the reducing night-time urination entry was “some improvement” and the waking at nights result is given as “not reduced”.
